Reference: ChEMBL document CHEMBL1201862, “PubChem BioAssay data set” (2004)
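Growth conditions: 96-well plates. Treatment: test compound, 48 hours, 5 concentrations. Analysis: linear interpolation between bracketing concentrations; unreached endpoints set to highest concentration. Here, GI50 denotes the concentration required for 50% inhibition of growth.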 Activity calls are given as the source filed them. Rule as the data show it: active = GI50 up to about 1.1 µM and inactive = higher.

What was measured:
Experiment in all cases: growth of human tumour cells (NCI), 48 h
[1] = test system: K562
[2] = test system: MDA-MB-231
[3] = test system: TK-10
[4] = test system: MOLT-4
[5] = test system: NCI-H460
[6] = test system: MCF7
[7] = test system: T47D
[8] = test system: EKVX
[9] = test system: OVCAR-4
[10] = test system: ACHN
[11] = test system: CCRF-CEM
[12] = test system: BT-549
[13] = test system: LOX IMVI
[14] = test system: UACC-62
[15] = test system: Hs-578T
[16] = test system: HCC 2998
[17] = test system: SK-MEL-28
[18] = test system: UACC-257
[19] = test system: HCT-15

SMILES	GI50 [1]	GI50 [2]	GI50 [3]	GI50 [4]	GI50 [5]	GI50 [6]	GI50 [7]	GI50 [8]	GI50 [9]	GI50 [10]	GI50 [11]	GI50 [12]	GI50 [13]	GI50 [14]	GI50 [15]	GI50 [16]	GI50 [17]	GI50 [18]	GI50 [19] [µM]
CCCc1cc(COC)c(C#N)c(O)n1	> 100 µM (inactive)	> 100 µM (inactive)	> 100 µM (inactive)	> 100 µM (inactive)	> 100 µM (inactive)	> 100 µM (inactive)	> 100 µM (inactive)	> 100 µM (inactive)	> 100 µM (inactive)	> 100 µM (inactive)	> 100 µM (inactive)	> 100 µM (inactive)	> 100 µM (inactive)	> 100 µM (inactive)	> 100 µM (inactive)	> 100 µM (inactive)	> 100 µM (inactive)	> 100 µM (inactive)	> 100
O=C(NCCCNCCNC(=O)c1cc(-c2ccccc2)nc2ccccc12)c1cc(-c2ccccc2)nc2ccccc12	1.94 µM (inactive)	1.86 µM (inactive)	1.66 µM (inactive)	2.09 µM (inactive)	1.83 µM (inactive)	1.68 µM (inactive)	1.91 µM (inactive)	2.16 µM (inactive)	2.13 µM (inactive)	1.79 µM (inactive)	0.783 µM (active)	11.6 µM (inactive)	1.58 µM (inactive)	2.22 µM (inactive)	2.37 µM (inactive)	1.7 µM (inactive)	1.82 µM (inactive)	1.67 µM (inactive)	1.52
CC(C)NC(=O)OCCN=C1c2ccccc2C(Br)C(Br)c2ccccc21 (stereo not drawn)	1.06 µM (active)	11.5 µM (inactive)	5.87 µM (inactive)	6.19 µM (inactive)	10.4 µM (inactive)	12.1 µM (inactive)	3.25 µM (inactive)	9.06 µM (inactive)	6.93 µM (inactive)	7.6 µM (inactive)	0.46 µM (active)	10.4 µM (inactive)	2.94 µM (inactive)	10.1 µM (inactive)	8.41 µM (inactive)	22.7 µM (inactive)	13.2 µM (inactive)	7.35 µM (inactive)	9.75
NC1=CN(Cc2ccccc2)C2=N/C(=C\c3ccccc3)C(=O)N12	48.8 µM (inactive)	> 100 µM (inactive)	> 100 µM (inactive)	97.3 µM (inactive)	> 100 µM (inactive)	> 100 µM (inactive)	> 100 µM (inactive)	> 100 µM (inactive)	38.2 µM (inactive)	> 100 µM (inactive)	50 µM (inactive)	> 100 µM (inactive)	> 100 µM (inactive)	> 100 µM (inactive)	> 100 µM (inactive)	> 100 µM (inactive)	> 100 µM (inactive)	40.1 µM (inactive)	> 100
CC(C)[Si](OCC/C=C/C1CCC(=O)C1C(O)C1CCCCC1)(C(C)C)C(C)C (stereo not drawn)	17.2 µM (inactive)	18.8 µM (inactive)	17.9 µM (inactive)	12.5 µM (inactive)	17 µM (inactive)	15.9 µM (inactive)	15 µM (inactive)	15.5 µM (inactive)	20.1 µM (inactive)	14.8 µM (inactive)	19.5 µM (inactive)	18.9 µM (inactive)	17.1 µM (inactive)	14.9 µM (inactive)	18.1 µM (inactive)	8.99 µM (inactive)	15.1 µM (inactive)	15.4 µM (inactive)	16.3
Cc1coc2c1C(OC(=O)C(C)C)C1(C)C(C)CCC(O)C1C2=O (stereo not drawn)	54 µM (inactive)	> 100 µM (inactive)	> 100 µM (inactive)	93.1 µM (inactive)	> 100 µM (inactive)	98.2 µM (inactive)	> 100 µM (inactive)	> 100 µM (inactive)	> 100 µM (inactive)	> 100 µM (inactive)	57.4 µM (inactive)	> 50.8 µM (inactive)	> 100 µM (inactive)	> 100 µM (inactive)	> 100 µM (inactive)	> 91.4 µM (inactive)	> 100 µM (inactive)	> 100 µM (inactive)	> 100
Cc1cccc(NC(=S)Nc2ccc(Cl)cc2)n1	> 100 µM (inactive)	> 100 µM (inactive)	> 100 µM (inactive)	> 100 µM (inactive)	> 100 µM (inactive)	> 100 µM (inactive)	> 100 µM (inactive)	> 100 µM (inactive)	> 100 µM (inactive)	> 100 µM (inactive)	> 100 µM (inactive)	> 100 µM (inactive)	> 100 µM (inactive)	> 100 µM (inactive)	> 100 µM (inactive)	> 100 µM (inactive)	> 100 µM (inactive)	> 100 µM (inactive)	> 100
